Assay results published in ChEMBL document CHEMBL1139270, “Design, synthesis, and biological evaluation of a scaffold for iGluR ligands based on the structure of (-)-kaitocephalin” (2009).
Active and inactive are the calls of the source. No cut-off for these calls is given here.

Assays:
[1] = Antagonist activity at rat AMPA receptor expressed in Xenopus oocytes assessed as reduction of kainate-induced membrane current at 100 uM relative to kainate; type: functional, Oocyte; set-up: scale not given: the % may be the effect or the level left
Oocyte [2] = experiment: Agonist activity at rat AMPA receptor expressed in Xenopus oocytes at 100 uM; type: functional, cell-based
Oocyte [3] = experiment: Agonist activity at rat KA receptor expressed in Xenopus oocytes at 100 uM; type: functional, cell-based
[4] = Antagonist activity at rat KA receptor expressed in Xenopus oocytes assessed as reduction of kainate-induced membrane current at 100 uM relative to kainate; type: functional, Oocyte; set-up: scale not given: the % may be the effect or the level left

| Activity (Oocyte [2]) | Activity (Oocyte [3]) | Compound | Activity [1] [%] | Activity [4] [%] |
| --- | --- | --- | --- | --- |
| inactive | inactive | N[C@@H](C(=O)O)[C@H](O)[C@@]1(C(=O)O)CC[C@H](c2ccccc2)N1 | 72 | 72 |
| inactive | inactive | Cc1cccc([C@H]2CC[C@](C(=O)O)([C@@H](O)[C@@H](N)C(=O)O)N2)c1 | 75 | 75 |
| inactive | inactive | Cc1ccccc1[C@H]1CC[C@](C(=O)O)([C@@H](O)[C@@H](N)C(=O)O)N1 | 49 | 49 |
| inactive | inactive | Cc1ccc([C@H]2CC[C@](C(=O)O)([C@@H](O)[C@@H](N)C(=O)O)N2)cc1 | 83 | 83 |
